{
  "source": "patent US10905897B2",
  "about": "“Synergistic treatment methodologies using light therapy” (Neuro-Laser Foundation, Inc., priority 2016, dated 2021)",
  "key": {"traumatic brain injury": {"tested_on": "traumatic brain injury", "settings": "two large U.S. studies; cited from earlier work"}, "postconcussive symptoms": {"tested_on": "postconcussive symptoms", "settings": "patients with TBI; cited from earlier work"}, "[1]": {"tested_on": "nerves involved in polyneuropathy", "experiment": "Polyneuropathy treatment: ketamine administration followed by infrared light, nerve conduction", "format": "in vivo, human", "settings": "then 810 nm and 980 nm light, 10.5 watts, continuous wave, 10 minutes, about 9-10 treatments", "source_text": "In one embodiment, the inventive method can be employed to treat an exemplary case of polyneuropathy. In this example, a neurologist or other medical professional can conduct an EMG study (or other diagnostic procedure) to determine which nerve is involved, locate the distal portion of the nerve and the path through the body. Then, after the appropriate ketamine administration, as part of 910, the operator configures the system. For example, this can be accomplished by setting the wattage to 10.5 watts, setting the wavelengths to 810 nm and 980 nm, specifying continuous wave, setting duration at 10 minutes, and determining total joules to be about 6000. The operator would then activate the applicator over the nerve to be treated. Maintaining proximity and applying active circular techniques, the operator would move the applicator over the area of involvement, tracing the actual nerve or nerves involved. This might entail, for instance, moving from the hip down the leg to the foot, or from the hand up the arm to the shoulder. The active sweeping pattern is maintained throughout, while monitoring the temperature, light, duration and patient as well. The treatment is then reviewed with the patient and follow-up treatments are scheduled (usually approximately 9-10 treatments for this condition). […]"}, "depression": {"tested_on": "depression", "experiment": "Clinical experience with ketamine treatment for depression", "settings": "extensive clinical experience"}, "[2]": {"tested_on": "depressive symptoms and suicidal ideation", "settings": "single infusion; cited from earlier work"}, "tau protein": {"tested_on": "tau protein", "settings": "transgenic mice overexpressing tau, cited from earlier work"}, "post-concussive syndrome": {"tested_on": "post-concussive syndrome", "settings": "double-blind, placebo-controlled; cited from earlier work"}},
  "data": [
    {"compound": "C[N+](C)(C)CCOP(=O)(O)OP(=O)([O-])OC[C@H]1O[C@@H](n2ccc(N)nc2=O)[C@H](O)[C@@H]1O", "note": "[Citicholine]", "values": [
      {"measurement": "benefit in TBI", "setting": "traumatic brain injury", "value": "failed to demonstrate significant benefit"}
    ]},
    {"compound": "C[S+](CC[C@H](N)C(=O)O)C[C@H]1O[C@@H](n2cnc3c(N)ncnc32)[C@H](O)[C@@H]1O", "note": "(some centres unmarked) [SAMe, S-adenosylmethionine]", "values": [
      {"measurement": "improvement in clinical scores of postconcussive symptoms", "setting": "postconcussive symptoms", "value": 77, "unit": "%"}
    ]},
    {"compound": "CNC1(c2ccccc2Cl)CCCCC1=O", "note": "(centres unmarked) [ketamine]", "values": [
      {"measurement": "increase in the conduction velocity of the nerves involved", "setting": "[1]", "value": "20-30%"},
      {"measurement": "patients treated for depression who see a favorable clinical response", "setting": "depression", "value": "approximately 80%"},
      {"measurement": "duration of symptom relief with single infusions", "setting": "[2]", "value": "4 to 10", "unit": "days"}
    ]},
    {"compound": "[Cl-].[Li+]", "note": "[lithium chloride]", "values": [
      {"measurement": "resulting blood levels", "setting": "tau protein; dietary lithium chloride", "value": "≤ 0.2 milli-Equivalents per liter"},
      {"measurement": "levels of tau protein accumulation upon pathological examination", "setting": "tau protein", "value": "significantly decreased"}
    ]},
    {"compound": "NC(=O)CN1CCCC1=O", "note": "[piracetam, Piracetam]", "values": [
      {"measurement": "symptoms of post-concussive syndrome, including headache and vertigo", "setting": "post-concussive syndrome", "value": "improved several symptoms"}
    ]}
  ]
}
